Measurements reported in PMC2219267 (The Journal of General Physiology, 1996).
Read-outs that look alike come from different tables or passages of the source.

Molecular target: T1, band 3 (Homo sapiens, UniProt P02730)
T1 sequence (P02730 1-911): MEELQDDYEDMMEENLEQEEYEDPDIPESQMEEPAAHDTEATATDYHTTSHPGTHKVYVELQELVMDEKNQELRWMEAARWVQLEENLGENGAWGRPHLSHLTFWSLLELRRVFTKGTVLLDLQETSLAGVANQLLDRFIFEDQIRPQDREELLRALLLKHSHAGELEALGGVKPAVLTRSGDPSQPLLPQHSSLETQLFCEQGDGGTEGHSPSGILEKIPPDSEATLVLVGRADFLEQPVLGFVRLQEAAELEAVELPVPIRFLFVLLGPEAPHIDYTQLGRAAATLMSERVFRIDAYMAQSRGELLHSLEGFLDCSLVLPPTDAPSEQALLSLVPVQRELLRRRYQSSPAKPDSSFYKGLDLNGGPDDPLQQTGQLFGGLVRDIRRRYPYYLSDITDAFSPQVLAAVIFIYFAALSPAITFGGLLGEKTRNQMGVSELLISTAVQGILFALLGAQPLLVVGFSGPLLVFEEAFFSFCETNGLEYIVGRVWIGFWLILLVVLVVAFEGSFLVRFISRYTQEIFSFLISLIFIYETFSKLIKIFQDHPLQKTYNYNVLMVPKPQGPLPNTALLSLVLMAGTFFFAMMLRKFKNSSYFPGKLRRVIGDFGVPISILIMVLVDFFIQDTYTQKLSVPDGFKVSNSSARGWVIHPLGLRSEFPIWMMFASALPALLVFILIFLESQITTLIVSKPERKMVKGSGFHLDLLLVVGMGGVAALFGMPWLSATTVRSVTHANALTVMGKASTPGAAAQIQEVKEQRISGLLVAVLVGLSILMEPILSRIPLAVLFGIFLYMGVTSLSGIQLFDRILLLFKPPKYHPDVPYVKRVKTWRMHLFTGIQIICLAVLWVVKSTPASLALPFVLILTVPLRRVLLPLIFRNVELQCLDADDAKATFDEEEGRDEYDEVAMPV
Assay: 36Cl exchange flux inhibition in red blood cells, Dixon plots
Format: cell-based
Conditions: for Kd: read-out: Average KoI (SE)

[1] = exp 86, pHo 11.6, sucrose, Clo 30 mM
[2] = exp 86, pHo 11.6, sucrose, Clo 200 mM
[3] = exp N223, pHo 7.2, citrate, Clo 1.05 mM
[4] = exp N223, pHo 7.2, citrate, Clo 2.07 mM
[5] = exp N223, pHo 7.2, citrate, Clo 145 mM
[6] = exp N225, pHo 7.2, citrate, Clo 2.07 mM
[7] = exp N225, pHo 7.2, citrate, Clo 4.14 mM
[8] = exp N225, pHo 7.2, citrate, Clo 130 mM

ID50 for iodide in the medium with low Cl- concentration (exp 84, pHo 8.0, 0°C, Hepes, Cli 130 mM, low Clo 0.9 mM): 2.05 mM
ID50 for iodide in the medium with low Cl- concentration (exp 85, pHo 7.2, 0°C, Hepes, Cli 133 mM, low Clo 0.3 mM): 1.80 mM
ID50 for iodide in the medium with low Cl- concentration (exp 86, pHo 11.6, 0°C, CAPS, Cli 295 mM, low Clo 30 mM): 63.3 mM
DS·Clo (Dixon slope times [Clo]) [1]: 0.2098
Dixon slope (DS) for Io inhibition of Cl- exchange [1]: 0.00699
High/low: DS·Clo at the highest [Clo] divided by that at the given [Clo] [1]: 1.12
DS·Clo (Dixon slope times [Clo]) [2]: 0.2354
Dixon slope (DS) for Io inhibition of Cl- exchange [2]: 0.00118
ID50 for iodide in the medium with low Cl- concentration (exp 86, pHo 12.4, 0°C, CAPS, Cli 295 mM, low Clo 30 mM): 88.5 mM
DS·Clo (Dixon slope times [Clo]) (exp 86, pHo 12.4, Clo 30 mM): 0.3617
Dixon slope (DS) for Io inhibition of Cl- exchange (exp 86, pHo 12.4, Clo 30 mM): 0.01206
High/low: DS·Clo at the highest [Clo] divided by that at the given [Clo] (exp 86, pHo 12.4, Clo 30 mM): 1.08
DS·Clo (Dixon slope times [Clo]) (exp 86, pHo 12.4, Clo 200 mM): 0.3918
Dixon slope (DS) for Io inhibition of Cl- exchange (exp 86, pHo 12.4, Clo 200 mM): 0.001959
ID50 for iodide in the medium with low Cl- concentration (exp 87, pHo 11.9, 0°C, CAPS, Cli 294 mM, low Clo 30 mM): 83.8 mM
ID50 for iodide in the medium with low Cl- concentration (exp 87, pHo 12.4, 0°C, CAPS, Cli 294 mM, low Clo 30 mM): 92.5 mM
DS·Clo (Dixon slope times [Clo]) (exp 87, pHo 12.4, Clo 30 mM): 0.3492
Dixon slope (DS) for Io inhibition of Cl- exchange (exp 87, pHo 12.4, Clo 30 mM): 0.01164
High/low: DS·Clo at the highest [Clo] divided by that at the given [Clo] (exp 87, pHo 12.4, Clo 30 mM): 0.81
DS·Clo (Dixon slope times [Clo]) (exp 87, pHo 12.4, Clo 200 mM): 0.2824
Dixon slope (DS) for Io inhibition of Cl- exchange (exp 87, pHo 12.4, Clo 200 mM): 0.001412
ID50 for iodide in the medium with low Cl- concentration (exp 89, pHo 11.9, 0°C, CAPS, Cli 304 mM, low Clo 30 mM): 91.8 mM
ID50 for iodide in the medium with low Cl- concentration (exp 89, pHo 12, 0°C, No buffer, Cli 304 mM, low Clo 30 mM): 128.5 mM
DS·Clo (Dixon slope times [Clo]) [3]: 0.0854
Dixon slope (DS) for Io inhibition of Cl- exchange [3]: 0.081
High/low: DS·Clo at the highest [Clo] divided by that at the given [Clo] [3]: 3.96
DS·Clo (Dixon slope times [Clo]) [4]: 0.1048
Dixon slope (DS) for Io inhibition of Cl- exchange [4]: 0.0506
High/low: DS·Clo at the highest [Clo] divided by that at the given [Clo] [4]: 3.22
DS·Clo (Dixon slope times [Clo]) [5]: 0.338
Dixon slope (DS) for Io inhibition of Cl- exchange [5]: 0.00233
DS·Clo (Dixon slope times [Clo]) [6]: 0.0724
Dixon slope (DS) for Io inhibition of Cl- exchange [6]: 0.0349
High/low: DS·Clo at the highest [Clo] divided by that at the given [Clo] [6]: 3.66
DS·Clo (Dixon slope times [Clo]) [7]: 0.0907
Dixon slope (DS) for Io inhibition of Cl- exchange [7]: 0.0219
High/low: DS·Clo at the highest [Clo] divided by that at the given [Clo] [7]: 2.92
DS·Clo (Dixon slope times [Clo]) [8]: 0.2652
Dixon slope (DS) for Io inhibition of Cl- exchange [8]: 0.00204
1/R, ratio of dissociation constants alkaline/neutral state (our value): 69
apparent ID50 for I- as an inhibitor of Cl- exchange (pH 10.6, 1.65 mM [Clo]): 23.6 ± 2.1 mM
y intercept of ID50 for Io vs [Clo] (should give KoI) (pHi and pHo 7.2, 0°C, Cli ~150 mM, media with 5 mM Hepes, Fig. 5): 2.0 ± 0.2 mM
y intercept of Dixon slope for Io inhibition vs 1/[Clo] (pHo 7.2, 25 mM K3citrate plus sucrose replacing Cl-, Fig. 4B): 0.0017 kg Hb·s·mmol-1·mM-1
y intercept of Dixon slope for Io inhibition vs 1/[Clo] (pHo 7.2, sucrose replacing Clo, Fig. 4A): 0.006 kg Hb·s·mmol-1·mM-1
Kd (pHo 7.2, 0°C): 0.83 mM
Kd (pHo 8.0, 0°C): 0.45 mM
Kd (pHo 8.5, 0°C): 1.01 mM
Kd (pHo 8.66, 0°C): 1.26 mM
Kd (pHo 9.2, 0°C): 2.6 mM
Kd (pHo 9.9, 0°C): 5.63 mM
Kd (pHo 10, 0°C): 6.48 mM
Kd (pHo 10.6, 0°C): 18.4 mM
Kd (pHo 10.7, 0°C): 16.4 mM
Kd (pHo 11.6, 0°C): 35.8 mM
Kd (pHo 11.9, 0°C): 75.6 mM
Kd (pHo 12.4, 0°C): 73.4 mM
R = K++I/K+I, ratio of I- dissociation constants for neutral and alkaline forms (two-titratable-site fit to KoI data): 0.0145
Structure (SMILES): [I-].[K+] [iodide, potassium iodide]
